The text below walks through data of patent EP3521435A1, “A HIGH STRINGENCY SELECTION SYSTEM FOR PROTEIN EXPRESSION IN PROLINE-AUXOTROPHIC CELLS” (Bayer AG, priority 2018, dated 2019).

Experiment [1] concerns CHO-K1 cells. Put plainly: Fed-batch fermentation in shake flasks of human IgG1 expressing stable cell populations. In kind it is cell-based, Chinese hamster. Particulars: selected in CD-Fusion + 10 µg/ml Puromycin (pJF1576), non-selecting conditions; for Productivity profile: human IgG1. The source says: To test the performance of P5CS selection in combination with DHP in a production cell line development setting (i.e. only a single selection marker in expression vector), vectors with P5CS selection marker in place of Puromycin selection marker containing human IgG1 expression cassettes were generated and tested. For this experiment, the vector pJF1979 was taken as a reference, with Puromycin selection marker placed downstream of the human IgG1 expression cassette. For comparison, the vectors pJF1969 and pJF1970 were used, which contained short and long isoform of P5CS in place of Puromycin selection marker downstream of human IgG1 expression cassette. As control, vector pJF1576 from Example 8 was used, which contained both P5CS (upstream of human IgG1 expression cassette) and Puromycin (downstream of human IgG1 expression cassette) selection markers. […] The fed-batch was without pH control during cultivation and no additional glucose was fed apart from that present in feeding solutions. Table 22, Table 23 and Table 24 show viable cell density, viability and productivity profiles of cell populations cultured in fed-batch fermentation in shake flasks under non-selecting conditions (i.e. production medium containing proline and no additional selective agents like Puromycin or DHP) after inoculation at 3e5 viable cells/ml. […] Table 21: Cell viabilities determined post-transfection on day 21.

Experiment [2] relates to CHO-K1 cells. Described as above. In kind it is cell-based, Chinese hamster. Particulars: non-selecting conditions; for Productivity profile: human IgG1.
Experiment [3] deals with T1, murine P5CS short isoform (Mus musculus, UniProt Q9Z110).
T1 sequence (Q9Z110 1-793 isoform Q9Z110-2): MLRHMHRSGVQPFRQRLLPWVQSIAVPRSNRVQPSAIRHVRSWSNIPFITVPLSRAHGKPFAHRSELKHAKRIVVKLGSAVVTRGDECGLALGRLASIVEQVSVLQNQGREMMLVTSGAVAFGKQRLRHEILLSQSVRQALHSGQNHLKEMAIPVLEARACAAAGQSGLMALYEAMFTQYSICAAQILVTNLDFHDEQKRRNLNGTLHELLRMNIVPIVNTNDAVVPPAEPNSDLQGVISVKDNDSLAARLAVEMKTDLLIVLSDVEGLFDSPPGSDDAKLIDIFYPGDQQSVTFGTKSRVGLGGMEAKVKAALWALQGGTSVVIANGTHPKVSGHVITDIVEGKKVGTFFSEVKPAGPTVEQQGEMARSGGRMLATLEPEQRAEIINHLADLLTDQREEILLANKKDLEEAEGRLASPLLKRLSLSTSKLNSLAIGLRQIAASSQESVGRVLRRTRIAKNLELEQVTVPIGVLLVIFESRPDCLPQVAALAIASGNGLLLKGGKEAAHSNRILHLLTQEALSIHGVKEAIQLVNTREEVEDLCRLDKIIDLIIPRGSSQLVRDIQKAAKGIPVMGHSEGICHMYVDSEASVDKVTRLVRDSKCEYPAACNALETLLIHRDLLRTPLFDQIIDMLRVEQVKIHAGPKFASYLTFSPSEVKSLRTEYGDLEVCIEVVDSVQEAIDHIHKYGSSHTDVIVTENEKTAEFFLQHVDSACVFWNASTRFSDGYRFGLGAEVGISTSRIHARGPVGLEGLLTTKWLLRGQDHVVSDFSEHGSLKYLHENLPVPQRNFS
Particulars: Hu et al.; cited from earlier work.

The next experiment has as its target T2, murine P5CS long isoform (Mus musculus, UniProt Q9Z110).
T2 sequence (Q9Z110 1-795): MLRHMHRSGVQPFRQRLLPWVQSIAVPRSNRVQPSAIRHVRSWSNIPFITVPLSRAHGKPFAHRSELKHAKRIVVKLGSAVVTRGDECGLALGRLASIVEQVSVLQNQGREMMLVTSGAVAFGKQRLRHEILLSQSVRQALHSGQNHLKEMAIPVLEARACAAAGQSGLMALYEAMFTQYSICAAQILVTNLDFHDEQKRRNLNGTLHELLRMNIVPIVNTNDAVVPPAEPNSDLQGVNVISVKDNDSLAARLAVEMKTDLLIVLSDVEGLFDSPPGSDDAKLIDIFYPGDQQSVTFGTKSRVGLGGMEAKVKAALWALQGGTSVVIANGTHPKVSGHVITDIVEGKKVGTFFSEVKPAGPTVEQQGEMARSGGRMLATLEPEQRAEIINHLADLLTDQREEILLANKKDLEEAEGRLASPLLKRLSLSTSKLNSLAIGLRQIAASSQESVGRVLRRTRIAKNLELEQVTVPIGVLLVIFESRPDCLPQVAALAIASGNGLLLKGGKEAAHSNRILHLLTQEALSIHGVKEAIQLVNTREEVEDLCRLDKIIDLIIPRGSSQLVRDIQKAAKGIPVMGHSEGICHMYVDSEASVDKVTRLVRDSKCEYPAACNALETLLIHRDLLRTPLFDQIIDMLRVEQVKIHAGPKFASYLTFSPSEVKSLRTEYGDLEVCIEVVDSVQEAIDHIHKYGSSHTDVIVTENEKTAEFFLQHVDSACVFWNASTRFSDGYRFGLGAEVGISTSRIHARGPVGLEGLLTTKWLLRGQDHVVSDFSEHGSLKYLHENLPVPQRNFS
Particulars: Hu et al.; cited from earlier work.

[4] abbreviates: Day 3 after inoculation, selected in CD-Fusion + 10 µg/ml Puromycin (pJF1576).
Setting [5] is: Day 3 after inoculation, selected in CD-Fusion + 10 µg/ml Puromycin (pJF1579).
Setting [6] is: Day 5 after inoculation, selected in CD-Fusion + 10 µg/ml Puromycin (pJF1579).
[7] abbreviates: Day 5 after inoculation, selected in CD-Fusion + 10 µg/ml Puromycin (pJF1576).
The mark [8] stands for this setting: Day 7 after inoculation, selected in CD-Fusion + 10 µg/ml Puromycin (pJF1579).
The mark [9] stands for this setting: Day 10 after inoculation, selected in CD-Fusion + 10 µg/ml Puromycin (pJF1576).
Setting [10] is: Day 10 after inoculation, selected in CD-Fusion + 10 µg/ml Puromycin (pJF1579).
[11] abbreviates: Day 12 after inoculation, selected in CD-Fusion + 10 µg/ml Puromycin (pJF1579).
[12] abbreviates: Day 14 after inoculation, selected in CD-Fusion + 10 µg/ml Puromycin (pJF1576).
[13] abbreviates: Day 14 after inoculation, selected in CD-Fusion + 10 µg/ml Puromycin (pJF1579).

Broadly, the Ki is the equilibrium dissociation constant of an inhibitor or competing ligand from its target.

Structures are written as SMILES.

On to `COc1ccc(C[C@H](N)C(=O)N[C@H]2[C@@H](O)[C@H](n3cnc4c(N(C)C)ncnc43)O[C@@H]2CO)cc1` [Puromycin], for which the Productivity profile with CHO-K1 cells [1] (Day 5 after inoculation) is on record as 26.6 mg/L; with CHO-K1 cells [1] (Day 7 after inoculation), 68.9 mg/L; in the experiment with CHO-K1 cells [1] (Day 12 after inoculation), 304.9 mg/L; with CHO-K1 cells [2] (setting [4]) it was 13.6 mg/L; with CHO-K1 cells [2] (setting [5]), 12.4 mg/L; with CHO-K1 cells [2] (setting [6]), 24.4 mg/L. The Productivity profile in the experiment on CHO-K1 cells [2] (setting [8]) amounted to 60.0 mg/L; in the experiment with CHO-K1 cells [2] (setting [9]) it was 182.0 mg/L; with CHO-K1 cells [2] (setting [10]), 155.1 mg/L; with CHO-K1 cells [2] (setting [11]), 265.9 mg/L; with CHO-K1 cells [2] (setting [12]), 442.2 mg/L; in the experiment on CHO-K1 cells [2] (setting [13]), 372.0 mg/L. Moreover, the Viability profile in the experiment with CHO-K1 cells [1] (Day 7 after inoculation) turned out to be 99.3%; in the experiment with CHO-K1 cells [1] (Day 10 after inoculation), 97.0%; in the experiment on CHO-K1 cells [2] (Day 0 after inoculation, selected in CD-Fusion + 10 µg/ml Puromycin (pJF1576)), 99.8%; in the experiment on CHO-K1 cells [2] (Day 0 after inoculation, selected in CD-Fusion + 10 µg/ml Puromycin (pJF1579)), 99.8%; in the experiment with CHO-K1 cells [2] (setting [4]) it was 99.9%; in the experiment on CHO-K1 cells [2] (setting [5]) it was 99.8%. Further, the Viability profile in the experiment on CHO-K1 cells [2] (setting [7]) was 99.8%; in the experiment with CHO-K1 cells [2] (setting [6]) it was 99.9%; in the experiment with CHO-K1 cells [2] (setting [8]), 99.2%; in the experiment on CHO-K1 cells [2] (setting [10]) it was 97.9%; with CHO-K1 cells [2] (Day 12 after inoculation, selected in CD-Fusion + 10 µg/ml Puromycin (pJF1576)), 96.2%; in the experiment on CHO-K1 cells [2] (setting [11]), 97.5%. Besides, the Viability profile in the experiment on CHO-K1 cells [2] (setting [12]) was determined as 86.2%; with CHO-K1 cells [2] (setting [13]) it was 92.7%. Also, the “Viable cell density profile” value in the experiment on CHO-K1 cells [1] (Day 12 after inoculation) is recorded as 9,1E +06 VCD/ml; with CHO-K1 cells [2] (setting [4]), 1,4E +06 VCD/ml; in the experiment with CHO-K1 cells [2] (setting [5]) it was 1,8E +06 VCD/ml; with CHO-K1 cells [2] (setting [7]) it was 4,8E +06 VCD/ml; with CHO-K1 cells [2] (setting [6]) it was 5,6E +06 VCD/ml; with CHO-K1 cells [2] (Day 7 after inoculation, selected in CD-Fusion + 10 µg/ml Puromycin (pJF1576)), 9,5E +06 VCD/ml. The “Viable cell density profile” value with CHO-K1 cells [2] (setting [8]) is given as 1,2E +07 VCD/ml; in the experiment on CHO-K1 cells [2] (setting [9]), 1,2E +07 VCD/ml; in the experiment with CHO-K1 cells [2] (setting [10]), 1,5E +07 VCD/ml; in the experiment on CHO-K1 cells [2] (setting [11]), 1,0E +07 VCD/ml; in the experiment with CHO-K1 cells [2] (setting [12]), 7,4E +06 VCD/ml; in the experiment with CHO-K1 cells [2] (setting [13]), 9,7E +06 VCD/ml.

For `NCCC[C@H](N)C(=O)O` [Orn, L-Ornithine], in experiment [3], the Ki is ~250 µM. The Ornithine inhibition entry at murine P5CS long isoform is given as “insensitive”.
